For 15 molecules, IC50 results are on record in patent US20250270209A1 (INTERLINE THERAPEUTICS, INC., priority 2022, published 2025).

Assay [1] addresses T1, wild type LRRK2 overexpressed in recombinant HEK-293T cells (Homo sapiens, UniProt Q5S007).
T1 construct: host or cells: HEK293T (transient transfection with pCMV-LRRK2 WT plasmid)
The experiment in a line: pS935 LRRK2 Cell Assay (HTRF, phospho-LRRK2 Ser935). The note with it: LRRK2 Inhibition, Table 8, 2 hours compound incubation. The format is cell-based. On the procedure:
(§1) A 2× detection solution was prepared: Tb-pERM (pLRRKtide) antibody (final concentration 0.25 nM) and EDTA (final concentration 10 mM) in TR-FRET dilution buffer. 10 μL 2× detection solution was dispensed to each well in assay plate to stop kinase reaction by Multidrop. Assay plate was spun at 1,000 rpm for 1 min and incubate for 30 min at 23° C. Assay plate was then read on Envision configured for LanthaScreen® TR-FRET. pS935 LRRK2 Cell Assay
The following protocol describes an in-vitro method for measuring phosphorylation at Ser935 on wild type LRRK2 overexpressed in recombinant HEK-293T cells. The method is based on HTRF technology, which combines Fluorescence Resonance Energy Transfer (FRET) with Time-Resolved measurement (TR). Phospho-LRRK2 (Ser935) is detected in a sandwich assay format using two different specific antibodies, one labelled with Eu3+-Cryptate (donor) and the second with d2(acceptor).When the fluorophores are in close proximity, excitation of the donor with a light source (flash lamp) stimulates FRET to the acceptor, which in turn fluoresces at a specific wavelength (665 nm). The fluorescence emission at 615 nm from the donor is also measured to allow ratiometric reduction of data. The specific signal is proportional to phospho-LRRK2 (Ser935).
Plasmid transient transfection: DMEM medium, FBS, DPBS, Trans-IT, OPTI-MEM reagents were allowed to warm to room temperature. HEK293T cells were cultured in DMEM +10% FBS complete medium in T150 flasks till around 80% confluency before transfection. Then cells were washed with 10 mL PBS and detached with 3 mL 0.25% typinsin. 30×10E6 HEK293T cells were seeded in DMEM +10% FBS complete medium to a 15 cm dish.
DNA, TransIT-LT1, OPTI-MEM complex were prepared: […] OPTI-MEM was added to a 15 mL cone tube, then […] plasmid was added to OPTI-MEM and mixed, followed by addition of 60 μL TransIT-LT1 to the plasmid OPTI-MEM mixture and mixing. The resulting mixture was incubated for 15 minutes.
The above plasmid, DNA and OPTI-MEM mixture was added dropwise to the 15 cm dish, ensuring the drops were evenly distributed. The culture dish was gently rocked back and forth and from left to right to evenly distribute the complex. The tranfected dish was incubated for 24 hours at 37° C., and 5% CO2.
Transfected HEK293T was collected in the 15 cm dish. Media was aspirated from tissue culture dish, and washed by dispensing 10 mL 1× DPBS into 15 cm dish. 1× DPBS was aspirated and 3 mL trypsin was dispensed to 15 cm dish. The dish was incubated with trypsin at room temperature for 3 min until the cells were detached. 10 mL of DMEM +10% FBS medium were added to 15 cm dish and triturated to ensure homogenous cell suspensions.
Homogenous cell suspensions were transferred to a 50 mL tube, and centrifuged for 5 minutes at 1,000 rmp/min. The supernatant was aspirated and resuspended with 20 mL complete medium. 1 mL of cell suspension was transferred for cell counting. The cell suspension was diluted to 2× 10E5 cells/ml. 50 μL cell suspensions were added to a 384-well plate. The plate was quick spun at 800 rpm for 1 minute, then incubate overnight at 37° C., 5% CO2.
Compound dispensing: compound was diluted (10 mM DMSO stock solution) and added to assay plate (top concentration: 10 μM, 3 fold serial dilution, 9 doses) with duplicates by Tecan liquid handler. The DMSO concentration of each well was normalized to 0.2%. Plates were quick spun at 1,000 rpm for 1 minute. Plates were incubated at 37° C., 5% CO2 for 2 hours.
1× lysis buffer solution supplemented with blocking reagent was prepared (e.g. 1 mL lysis buffer 4X+3 mL water+40 μL stock blocking reagent 100X). Antibodies working solution was prepared by diluting 40-fold d2 and Cryptate antibodies with detection buffer(e.g. 1520 μL detection buffer+40 μL d2-antibody stock solution+[…] Cryptate-antibody stock solution).
After 2 hours incubation, cell plates were taken out from the incubator. […]
(Time-resolved FRET reads energy transfer from a long-lived donor to a nearby acceptor.)

The target of the next assay is LRRK2 wild type enzyme (Homo sapiens, UniProt Q5S007). In words: Biochemical Assay: LRRK2 TR-FRET (LanthaScreen) kinase assay with LRRKtide substrate. The note with it: LRRK2 Inhibition, Table 8. On the procedure: 10 mM compound solution was prepared in DMSO. An 11-point, 3-fold dilution was performed, with highest concentration at 10 μM. A 10 mM compound DMSO solution was added to Labcyte LDV plate and the compound concentration of source plate was 10 mM. The 1st compound concentration of Inter plate(Labcyte 384 well PP plate) was 4.938×10^−1 mM which was prepared by transferring 1.5 μL of 10 mM compound from source plate to 28.9 μL DMSO. The 2nd compound concentration of Inter plate was 1.829×10^−2 mM which was prepared by transferring 60 nL of 10 mM compound from source plate to 32.7 μL DMSO. The 3rd compound concentration of Inter plate was 6.774×10^−4 mM which was prepared by transferring 2.5 nL of 10 mM compound from source plate to 36.9 μL DMSO. 100 nL of reference compound was dispensed in column 1 for low control wells and 100 nL of DMSO in column 24 for high control wells. Compounds were dispensed to column 2 to 23 of assay plate and backfilled with DMSO to a total volume of 100 nL.
A 2X LRRK2 enzyme solution (final concentration 3 nM) was prepared in assay buffer (Tris-HCl pH8.0:50 mM, MgCl2: 5 mM, EDTA: 1 mM, Brij-35:0.01%, 2 mM DTT). A 2× substrate solution was prepared: LRRK2 tide substrate (final concentration 400 nM) and ATP (final concentration 25 μM) in assay buffer. 5 μL 2× LRRK2 enzyme solution was dispensed to each well in assay plate by Multidrop. Assay plate was spun at 1,000 rpm for 1 min and incubated for 15 min at 23° C. 5 μL 2× ATP/LRRKtide solution was dispensed to each well in assay plate by Multidrop. Assay plate was spun at 1,000 rpm for 1 min and incubated for 120 min at 23° C.
as §1

Sequence of LRRK2 wild type enzyme (Q5S007 whole entry): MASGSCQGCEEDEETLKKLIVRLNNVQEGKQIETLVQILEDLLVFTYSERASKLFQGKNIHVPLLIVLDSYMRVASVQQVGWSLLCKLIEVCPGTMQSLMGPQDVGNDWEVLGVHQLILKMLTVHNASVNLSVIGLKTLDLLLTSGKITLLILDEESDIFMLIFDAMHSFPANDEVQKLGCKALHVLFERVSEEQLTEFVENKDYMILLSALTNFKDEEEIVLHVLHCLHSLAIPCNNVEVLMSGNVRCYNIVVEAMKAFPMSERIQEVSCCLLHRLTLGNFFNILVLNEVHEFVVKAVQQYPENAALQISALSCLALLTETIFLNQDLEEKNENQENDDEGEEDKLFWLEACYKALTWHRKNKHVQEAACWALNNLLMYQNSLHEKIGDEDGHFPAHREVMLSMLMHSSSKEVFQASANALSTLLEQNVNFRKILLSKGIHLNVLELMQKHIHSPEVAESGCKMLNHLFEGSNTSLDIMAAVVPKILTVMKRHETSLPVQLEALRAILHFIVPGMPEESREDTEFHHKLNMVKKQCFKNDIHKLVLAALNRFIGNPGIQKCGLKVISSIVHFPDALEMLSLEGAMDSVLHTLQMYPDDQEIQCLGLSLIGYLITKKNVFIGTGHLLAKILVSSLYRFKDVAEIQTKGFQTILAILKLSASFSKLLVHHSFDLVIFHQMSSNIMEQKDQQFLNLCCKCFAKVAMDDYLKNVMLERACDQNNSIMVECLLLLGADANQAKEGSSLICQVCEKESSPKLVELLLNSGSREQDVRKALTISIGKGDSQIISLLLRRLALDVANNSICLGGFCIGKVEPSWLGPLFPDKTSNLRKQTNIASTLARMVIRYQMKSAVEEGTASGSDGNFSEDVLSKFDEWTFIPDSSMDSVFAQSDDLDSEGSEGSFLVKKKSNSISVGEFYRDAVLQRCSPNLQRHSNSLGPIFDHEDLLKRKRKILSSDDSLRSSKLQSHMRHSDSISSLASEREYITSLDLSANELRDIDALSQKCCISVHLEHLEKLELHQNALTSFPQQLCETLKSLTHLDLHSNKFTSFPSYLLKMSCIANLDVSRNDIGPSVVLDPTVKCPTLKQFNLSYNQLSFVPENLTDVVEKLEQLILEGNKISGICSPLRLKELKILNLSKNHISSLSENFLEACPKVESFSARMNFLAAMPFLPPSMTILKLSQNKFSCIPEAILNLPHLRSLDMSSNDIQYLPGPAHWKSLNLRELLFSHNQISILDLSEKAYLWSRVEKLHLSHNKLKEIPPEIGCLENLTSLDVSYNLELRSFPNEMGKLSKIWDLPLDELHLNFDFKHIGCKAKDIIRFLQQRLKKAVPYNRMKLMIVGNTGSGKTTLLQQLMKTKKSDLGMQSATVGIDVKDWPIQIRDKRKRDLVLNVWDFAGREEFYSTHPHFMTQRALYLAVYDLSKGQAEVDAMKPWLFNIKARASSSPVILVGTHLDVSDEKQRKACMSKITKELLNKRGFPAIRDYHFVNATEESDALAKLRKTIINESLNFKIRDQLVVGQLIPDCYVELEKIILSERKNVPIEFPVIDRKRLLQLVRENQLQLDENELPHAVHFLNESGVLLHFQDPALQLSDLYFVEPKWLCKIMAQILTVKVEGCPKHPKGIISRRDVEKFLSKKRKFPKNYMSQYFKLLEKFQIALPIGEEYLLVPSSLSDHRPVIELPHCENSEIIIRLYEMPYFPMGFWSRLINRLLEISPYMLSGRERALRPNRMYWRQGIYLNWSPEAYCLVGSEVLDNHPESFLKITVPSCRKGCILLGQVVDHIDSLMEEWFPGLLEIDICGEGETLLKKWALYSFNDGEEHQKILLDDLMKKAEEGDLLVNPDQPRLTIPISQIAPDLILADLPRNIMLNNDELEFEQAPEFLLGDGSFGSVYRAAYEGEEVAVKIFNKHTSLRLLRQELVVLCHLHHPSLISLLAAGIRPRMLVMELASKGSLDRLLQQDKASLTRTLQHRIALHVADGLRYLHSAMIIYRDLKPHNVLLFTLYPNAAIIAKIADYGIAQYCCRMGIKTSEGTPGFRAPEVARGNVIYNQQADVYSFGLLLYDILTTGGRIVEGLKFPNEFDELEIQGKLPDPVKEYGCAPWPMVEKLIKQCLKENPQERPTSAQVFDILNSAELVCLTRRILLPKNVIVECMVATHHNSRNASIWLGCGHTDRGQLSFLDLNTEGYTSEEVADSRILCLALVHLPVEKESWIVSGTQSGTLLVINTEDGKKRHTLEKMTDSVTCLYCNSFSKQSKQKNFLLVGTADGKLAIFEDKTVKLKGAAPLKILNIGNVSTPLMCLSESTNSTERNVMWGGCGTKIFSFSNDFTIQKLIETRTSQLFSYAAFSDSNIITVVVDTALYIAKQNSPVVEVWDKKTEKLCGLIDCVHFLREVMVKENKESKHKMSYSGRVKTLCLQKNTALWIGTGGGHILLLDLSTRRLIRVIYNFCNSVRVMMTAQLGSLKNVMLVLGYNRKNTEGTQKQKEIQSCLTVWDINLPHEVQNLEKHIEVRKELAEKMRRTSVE
T1 sequence (Q5S007 whole entry): as above

In the case of `Cc1noc(CNC(=O)Cc2nc3cnc4ccc(C#N)cc4c3n2[C@@H]2CCO[C@H](C)C2)n1` [Compound 279, N-[(3-methyl-1,2,4-oxadiazol-5-yl)methyl]{3-[(2R,4R)-2-methyltetrahydro-2H-pyran-4-yl]-12-cyano-3,5,8-triazatricyclo[7.4.0.0^2,6]trideca-1(9),2(6),4,7,10,12-hexaen-4-yl}acetamide], the IC50 (commonly the midpoint of a concentration-inhibition curve) worked out at 86.3 nM in assay [1] and 0.776 nM at LRRK2 wild type enzyme.
Take `C[C@@H]1C[C@H](n2c(CC(=O)N[C@@H](C)C3CC3)nc3cnc4ccc(C#N)cc4c32)CCO1` [Compound 8, 2-{8-cyano-1-[(2R,4R)-2-methyloxan-4-yl]-1H-imidazo[4,5-c]quinolin-2-yl}-N-[(1S)-1-cyclopropylethyl]acetamide]: the IC50 in assay [1] turned out to be 118 nM; on LRRK2 wild type enzyme it was 1.49 nM.
`C[C@@H]1C[C@H](n2c(CC(=O)Nc3cccnc3C(F)(F)F)nc3cnc4ccc(C#N)cc4c32)CCO1` [Compound 285, N-[2-(trifluoromethyl)-3-pyridyl]{3-[(2R,4R)-2-methyltetrahydro-2H-pyran-4-yl]-12-cyano-3,5,8-triazatricyclo[7.4.0.0^2,6]trideca-1,4,6,8,10,12-hexaen-4-yl}acetamide]: the IC50 in assay [1] came to 18.2 nM; on LRRK2 wild type enzyme, 0.68 nM.
Turning to `C[C@@H]1C[C@H](n2c(CC(=O)Nc3cc(C(F)(F)F)no3)nc3cnc4ccc(C#N)cc4c32)CCO1` [Compound 342, N-[3-(trifluoromethyl)-5-isoxazolyl]{3-[(2R,4R)-2-methyltetrahydro-2H-pyran-4-yl]-12-cyano-3,5,8-triazatricyclo[7.4.0.0^2,6]trideca-1(9),2(6),4,7,10,12-hexaen-4-yl}acetamide], the values for the IC50 (in assay [1]; against LRRK2 wild type enzyme) were 75.1 nM and 2.17 nM, respectively.
For the molecule `C[C@@H]1C[C@H](n2c(CC(=O)NCC3CC3)nc3cnc4ccc(C5CC5)cc4c32)CCO1` [Compound 159, 2-{8-cyclopropyl-1-[(2R,4R)-2-methyloxan-4-yl]-1H-imidazo[4,5-c]quinolin-2-yl}-N-(cyclopropylmethyl)acetamide], the figures for the IC50 (in assay [1]; on LRRK2 wild type enzyme) were 94.1 nM and 1.65 nM, respectively.
In the same order, the values of `N#Cc1ccc2ncc3nc(CC(=O)NCC4CC4)n(C4CCCC4)c3c2c1` [Compound 109, 2-{8-cyano-1-cyclopentyl-1H-imidazo[4,5-c]quinolin-2-yl}-N— (cyclopropylmethyl)acetamide] are 172 nM and 1.82 nM.
For the molecule `C[C@@H]1C[C@H](n2c(CS(=O)(=O)C3CC3)nc3cnc4ccc(C#N)cc4c32)CCO1` [Compound 74, 2-[(cyclopropanesulfonyl)methyl]-1-[(2R,4R)-2-methyloxan-4-yl]-1H-imidazo[4,5-c]quinoline-8-carbonitrile], the values for the IC50 (in assay [1]; on LRRK2 wild type enzyme) were 430 nM and 5.92 nM, respectively.
In the same order, the values of `C[C@@H]1C[C@H](n2c(CN3CCCCC3=O)nc3cnc4ccc(C#N)cc4c32)CCO1` [Compound 79, 1-[(2R,4R)-2-methyloxan-4-yl]-2-[(2-oxopiperidin-1-yl)methyl]-1H-imidazo[4,5-c]quinoline-8-carbonitrile] are 815 nM and 10.8 nM.
On to `Cc1nccnc1NC(=O)Cc1nc2cnc3ccc(C#N)cc3c2n1[C@@H]1CCO[C@H](C)C1` [Compound 311, N-(3-methyl-2-pyrazinyl){3-[(2R,4R)-2-methyltetrahydro-2H-pyran-4-yl]-12-cyano-3,5,8-triazatricyclo[7.4.0.0^2,6]trideca-1(9),2(6),4,7,10,12-hexaen-4-yl}acetamide], for which the IC50 came out at 10 nM in assay [1] and 0.583 nM at LRRK2 wild type enzyme.
For `C[C@@H]1C[C@H](n2c(C3CC(=O)N(CC4CC4)C3)nc3cnc4ccc(C#N)cc4c32)CCO1` (mixture of isomers) [Compound 69, 2-[(3RS)-1-(cyclopropylmethyl)-5-oxopyrrolidin-3-yl]-1-[(2R,4R)-2-methyloxan-4-yl]-1H-imidazo[4,5-c]quinoline-8-carbonitrile], the IC50 in assay [1] stood at 182 nM; at LRRK2 wild type enzyme, 2.28 nM.
Regarding `C[C@@H]1C[C@H](n2c(CC(=O)N[C@H]3C[C@@H]3c3cccnc3)nc3cnc4ccc(C#N)cc4c32)CCO1` [Compound 347, N-[(1S,2R)-2-(3-pyridyl)cyclopropyl]{3-[(2R,4R)-2-methyltetrahydro-2H-pyran-4-yl]-12-cyano-3,5,8-triazatricyclo[7.4.0.0^2,6]trideca-1(9),2(6),4,7,10,12-hexaen-4-yl}acetamide], the IC50 was 144 nM in assay [1] and 1.28 nM against LRRK2 wild type enzyme.
For `C[C@@H]1C[C@H](n2c(CC(=O)NC3(C)CCC3)nc3cnc4ccc(C#N)cc4c32)CCO1` [Compound 303, N-1-methylcyclobutyl{3-[(2R,4R)-2-methyltetrahydro-2H-pyran-4-yl]-12-cyano-3,5,8-triazatricyclo[7.4.0.0^2,6]trideca-1(13),2(6),4,7,9,11-hexaen-4-yl}acetamide], the values for the IC50 (in assay [1]; at LRRK2 wild type enzyme) were 47 nM and 1.29 nM, respectively.
Take `C[C@@H]1C[C@H](n2c(CN3CCC(C(=O)O)C3)nc3cnc4ccc(C#N)cc4c32)CCO1` (stereo partly drawn) [Compound 77, 1-({8-cyano-1-[(2R,4R)-2-methyloxan-4-yl]-1H-imidazo[4,5-c]quinolin-2-yl}methyl)pyrrolidine-3-carboxylic acid]: the IC50 in assay [1] came to 5160 nM; on LRRK2 wild type enzyme, 34.2 nM.
In the same order, the values of `Cc1ccnc(C)c1NC(=O)Cc1nc2cnc3ccc(Cl)cc3c2n1[C@@H]1CCO[C@H](C)C1` [Compound 210, N-(2,4-dimethyl-3-pyridyl){3-[(2R,4R)-2-methyltetrahydro-2H-pyran-4-yl]-12-chloro-3,5,8-triazatricyclo[7.4.0.0^2,6]trideca-1,4,6,8,10,12-hexaen-4-yl}acetamide] are 7.83 nM and 0.377 nM.
In the same order, the values of `CC(=O)NCc1nc2cnc3ccc(C#N)cc3c2n1[C@@H]1CCO[C@H](C)C1` [Compound 23, N-({8-cyano-1-[(2R,4R)-2-methyloxan-4-yl]-1H-imidazo[4,5-c]quinolin-2-yl}methyl)acetamide] are 659 nM and 4.74 nM.
